For experiment [1], the target named is T1, BTK kinase domain (Homo sapiens, UniProt Q06187).
T1 construct: The kinase domains of BTK, LCK and ERK were expressed as recombinant purified proteins; made in house
The experiment in a line: In vitro kinase assay (HITHUNTER), BTK. The experiment is classed as biochemical. The following applies: Table 2. From the text:
(§1) Similarly, commercially available reagents such as HITHUNTER™ were used to evaluate the effect of compounds on the activity of additional kinases. The kinase domains of BTK, LCK and ERK were expressed as recombinant purified proteins were used for these studies.

The target of experiment [2] is T2, LCK kinase domain (Homo sapiens, UniProt P06239).
T2 construct: The kinase domains of BTK, LCK and ERK were expressed as recombinant purified proteins; made in house
T2 sequence (P06239 245-498 limits assumed, species assumed): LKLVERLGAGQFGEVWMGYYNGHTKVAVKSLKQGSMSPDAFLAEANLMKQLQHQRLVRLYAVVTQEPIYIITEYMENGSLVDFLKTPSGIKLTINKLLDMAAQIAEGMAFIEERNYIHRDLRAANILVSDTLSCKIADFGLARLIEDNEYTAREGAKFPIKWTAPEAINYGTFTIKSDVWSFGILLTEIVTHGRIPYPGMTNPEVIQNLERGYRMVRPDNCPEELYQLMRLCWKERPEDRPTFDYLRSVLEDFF
The experiment can be described thus: In vitro kinase assay (HITHUNTER), LCK. The following applies: Table 2. The format is biochemical.
Excerpt: as §1

Experiment [3] deals with T3, ITK kinase domain (Homo sapiens, UniProt Q08881).
T3 construct: N-terminally His-tagged ITK kinase domain (amino acids 352-617); His (N); made in house
T3 sequence (Q08881 352-617): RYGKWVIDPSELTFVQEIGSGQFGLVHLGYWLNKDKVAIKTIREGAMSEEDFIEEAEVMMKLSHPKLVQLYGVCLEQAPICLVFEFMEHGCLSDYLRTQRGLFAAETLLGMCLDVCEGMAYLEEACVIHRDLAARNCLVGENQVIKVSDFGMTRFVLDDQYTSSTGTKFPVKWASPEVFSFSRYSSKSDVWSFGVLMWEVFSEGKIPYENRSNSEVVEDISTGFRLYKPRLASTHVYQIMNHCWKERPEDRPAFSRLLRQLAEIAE
The experiment can be described thus: In vitro kinase assay (HITHUNTER enzyme fragment complementation), ITK. The experiment is classed as biochemical. As for the experimental part:
Compounds were screened using the HITHUNTER™ enzyme fragment complementation method (Discoverx). Briefly, a recombinantly produced, N-terminally His-tagged ITK kinase domain (amino acids 352-617) was incubated with various concentrations of individual compounds. ATP and substrate were added, and the kinase reaction was allowed to proceed for 2-16 hours. Commercially available detection reagents were added and allowed to react for 2-4 hours. The reaction was evaluated by luminescence. Initial results were confirmed using full-length recombinant ITK protein.
(§2) In order to confirm the mechanism by which compounds depicted herein interact with the kinase domain of Tec and EGFR kinases, we created a point mutant of the ITK kinase domain, whereby the key amino acid, namely C442 was mutated to alanine. The protein was expressed in a commercial baculovirus expression system using the manufacturer's general protocol (Invitrogen, pBlueBac). Protein was expressed and purified using standard techniques. […] While the activity of WT-ITK was inhibited by compounds depicted in this application, the same compounds had no activity towards the C442A mutant kinase domain.

Experiment [4] has as its system T cell leukemia/lymphoma cells. The experiment can be described thus: Mouse in vivo tumor model, peritoneal lavage and FACS analysis. More on the design: species or system NOD/SCID mice. The following applies: ip, intraperitoneal, relative to mock group treated with vehicle, read-out: % inhibition tumor growth. As to the method:
Several representative compounds were evaluated for efficacy in mouse in vivo tumor models. NOD/SCID mice were implanted intraperitoneally with T cell leukemia/lymphoma cells. One group was treated with vehicle alone (mock treatment) while the other groups were treated with several small molecule inhibitors via intraperitoneal route. Tumor growth was evaluated by peritoneal lavage and FACS analysis. Table 6 summarizes percent inhibition of tumor growth relative to a mock group treated with vehicle alone.

The target in experiment [5] is T4, C442A-ITK kinase domain (Homo sapiens, UniProt Q08881, C442A).
T4 construct: we created a point mutant of the ITK kinase domain; made in house; host or cells: baculovirus expression system (Invitrogen, pBlueBac)
T4 sequence (Q08881 363-615 C442A limits assumed): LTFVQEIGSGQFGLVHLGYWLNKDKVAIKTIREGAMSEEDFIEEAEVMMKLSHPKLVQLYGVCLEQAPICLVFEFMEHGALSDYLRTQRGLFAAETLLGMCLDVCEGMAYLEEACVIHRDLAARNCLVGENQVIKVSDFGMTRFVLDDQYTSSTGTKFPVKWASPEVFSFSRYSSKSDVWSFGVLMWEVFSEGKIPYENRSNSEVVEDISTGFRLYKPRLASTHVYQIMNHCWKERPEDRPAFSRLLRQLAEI
The experiment can be described thus: In vitro kinase assay, C442A point mutant of ITK kinase domain. The format is biochemical. As to conditions: Table 8.
Excerpt: as §2

[6] abbreviates: Table 8, wild type ITK kinase domain, read-out: IC50 wild-type ITK.

Each structure is given as a SMILES string. Like-named read-outs stand apart in the source and are kept apart here.

By IC50 is commonly meant the midpoint of a concentration-inhibition curve.

T1 sequence (Q06187 402-655 limits assumed): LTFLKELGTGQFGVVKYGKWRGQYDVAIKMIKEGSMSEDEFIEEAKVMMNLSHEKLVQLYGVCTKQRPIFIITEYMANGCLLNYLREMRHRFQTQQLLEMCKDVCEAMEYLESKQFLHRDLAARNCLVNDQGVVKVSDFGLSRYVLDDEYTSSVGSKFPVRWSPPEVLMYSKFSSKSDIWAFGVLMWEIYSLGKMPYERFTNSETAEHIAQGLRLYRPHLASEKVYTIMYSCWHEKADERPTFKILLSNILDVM

With `O=C(CCN1CCOCC1)c1ccc(-c2ccccc2)cc1`, the IC50 is 0.0369 µM in experiment [1]; 8.04 µM in experiment [2]; 0.0402 µM in experiment [3] (Table 2, read-out: IC50 ITK). For the compound `O=C(CCN1CCOCC1)c1ccccc1C(F)(F)F`, the IC50 is 1.02 µM in experiment [1] and 0.569 µM in experiment [3] (Table 2, read-out: IC50 ITK). In experiment [2], the “IC50 LCK” value is recorded as “NO IC50”. The matching figures for `Cc1ccccc1C(=O)CCN1CCOCC1`: 2.31 µM, 0.611 µM and “NO IC50”. With `O=C(CCN1CCOCC1)c1cc(F)ccc1Cl`, the IC50 in experiment [1] came out at 0.993 µM; in experiment [2], 29.5 µM; in experiment [3] (Table 2, read-out: IC50 ITK), 0.935 µM. Take `O=C(CCN1CCOCC1)c1cc(F)ccc1F`: the IC50 came out at 2.58 µM in experiment [1] and 0.874 µM in experiment [3] (Table 2, read-out: IC50 ITK). In experiment [2], the “IC50 LCK” value is “NO IC50”. On to `CCOc1ccccc1C(=O)CCN1CCOCC1`, for which the IC50 was 0.556 µM in experiment [1]; 705 µM in experiment [2]; 1.28 µM in experiment [3] (Table 2, read-out: IC50 ITK).

Take `O=C(CCN1CCOCC1)c1ccc(N2CCOCC2)cc1`: the IC50 was determined as 4.14 µM in experiment [1]; 27.1 µM in experiment [2]; 1.41 µM in experiment [3] (Table 2, read-out: IC50 ITK). Consider `CN(CCC(=O)C1=CC2NCC(=O)OC2C=C1)Cc1ccc(F)cc1` (centres unmarked), for which, in experiment [4], the inhibition in vivo at 80 mg/kg was 90 to 99%.

For `CN(C)C1CCN(CCC(=O)C2=CC3NCC(=O)OC3C=C2)CC1` (centres unmarked), the inhibition in vivo at 80 mg/kg in experiment [4] worked out at 99%.

On to `CN(C)C1CCN(CCC(=O)c2ccc3c(c2)NC(=O)CO3)C1` (centres unmarked), for which the inhibition in vivo at 100 mg/kg in experiment [4] is 99%. Same read-out and setting: under `O=C(CCN1CCOCC1)c1ccc(-c2cccnc2)cc1` stands 99%. As for `COc1ccc(C(=O)CCN2CCC(N(C)C)CC2)cc1OC`, the inhibition in vivo at 80 mg/kg in experiment [4] was in the range of 81 to 95%. As to `O=C1COc2ccc(C(=O)CCN3CCOCC3)cc2N1` [drawing 120], the IC50 in experiment [1] turned out to be 0.276 µM; in experiment [2] it was 2.89 µM; in experiment [3] (Table 2, read-out: IC50 ITK), 0.04 µM. On to `O=C(CCN1CCOCC1)c1ccc(F)cc1` [drawing 122], for which the IC50 in experiment [1] stood at 1.41 µM; in experiment [2], 27.7 µM; in experiment [3] (Table 2, read-out: IC50 ITK) it was 0.013 µM. Regarding `COc1ccc(C(=O)CCN2CCOCC2)cc1OC` [drawing 124], the IC50 amounted to 1.84 µM in experiment [1]; 23.9 µM in experiment [2]; 0.014 µM in experiment [3] (Table 2, read-out: IC50 ITK). The matching figures for `O=C(CCN1CCOCC1)c1ccc2ccccc2c1` [drawing 129]: 0.039 µM, 20 µM and 0.036 µM. As to `CN(C)C1CCN(CCC(=O)c2ccc3ccccc3c2)C1` (centres unmarked) [drawing 240], in experiment [4], the inhibition in vivo at 100 mg/kg was in the range of 70 to 90%. The same measure, in the same setting: the same measure for `O=C(CCN1CCOCC1)c1ccc2ccccc2c1` [drawing 241]: 85 to 98%. Take `COc1ccc(C(=O)CCN2CCOCC2)cc1OC` [drawing 242]: the inhibition in vivo at 80 mg/kg in experiment [4] lay in the range of 92 to 99%.

In the case of `O=C(CCN1CCOCC1)c1ccc(F)cc1` [drawing 243], the inhibition in vivo at 80 mg/kg in experiment [4] was in the range of 50 to 80%. Consider `O=C(CCN1CCOCC1)c1ccc2occc2c1` [drawing 246], for which the inhibition in vivo at 80 mg/kg in experiment [4] fell in the range of 67 to 81%.

As to `O=C(CCN1CCOCC1)c1cc2ccccc2cn1` [drawing 247], the inhibition in vivo at 80 mg/kg in experiment [4] was 92 to 99%. Same read-out and setting: the same measure for `COc1cc2c(cc1OC)CN(CCC(=O)c1ccc3c(c1)NC(=O)CO3)CC2` [drawing 249]: 97 to 99%. With `NC(=O)c1ccc2cc(C(=O)CCN3CCOCC3)ccc2c1` [drawing 250], in experiment [4] (30 mg/kg), the inhibition in vivo at 30 mg/kg amounted to 99%.

`O=C1COc2ccc(C(=O)CCN3CCOCC3)cc2N1` [drawing 253]: the inhibition in vivo at 20 mg/kg in experiment [4] (20 mg/kg) stood at 40%.

As to `CN(C)C1CCN(CCC(=O)c2ccc3ccccc3c2)C1` (centres unmarked) [drawing 257], the IC50 is over 10 µM in experiment [5] and 0.011 µM in experiment [3] (setting [6]).

In the case of `O=C(CCN1CCOCC1)c1ccc(F)cc1` [drawing 258], the IC50 in experiment [5] is over 10 µM; in experiment [3] (setting [6]), 0.0496 µM. The matching figures for `NC(=O)c1ccc2cc(C(=O)CCN3CCOCC3)ccc2c1` [drawing 259]: over 10 µM and 0.0111 µM.

(Values after US20150290200A1, “INTRACELLULAR KINASE INHIBITORS” (Pharmacyclics Inc., priority 2006, published 2015).)
